According to ChEMBL document CHEMBL1770083, “2-(4-Carbonylphenyl)benzoxazole inhibitors of CETP: attenuation of hERG binding and improved HDLc-raising efficacy” (Bioorg Med Chem Lett, 2011):

Legend:
Mus musculus = experiment: Increase of HDL cholesterol level in transgenic mouse model at 10 mg/kg; format: functional
[1] = Lipophilicity, log D of the compound at pH 7.3 by HPLC; format: physicochemical; conditions: buffer
[2] = biological target: T1, Cholesteryl ester transfer protein (Homo sapiens, UniProt P11597); experiment: Inhibition of CETP
T1 sequence (P11597 whole entry): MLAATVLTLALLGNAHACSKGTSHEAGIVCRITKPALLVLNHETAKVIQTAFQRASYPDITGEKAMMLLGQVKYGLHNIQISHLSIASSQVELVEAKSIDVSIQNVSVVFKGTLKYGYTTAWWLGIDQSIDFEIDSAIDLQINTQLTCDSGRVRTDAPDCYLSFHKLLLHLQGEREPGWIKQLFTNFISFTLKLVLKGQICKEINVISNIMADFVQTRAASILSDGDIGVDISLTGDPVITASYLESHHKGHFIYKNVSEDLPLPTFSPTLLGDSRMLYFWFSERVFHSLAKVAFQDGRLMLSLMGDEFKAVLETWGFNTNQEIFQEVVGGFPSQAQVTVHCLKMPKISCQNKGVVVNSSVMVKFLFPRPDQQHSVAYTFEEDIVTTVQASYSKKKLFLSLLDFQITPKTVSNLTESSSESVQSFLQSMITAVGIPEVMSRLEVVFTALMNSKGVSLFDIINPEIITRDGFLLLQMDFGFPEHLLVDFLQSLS

[3] = biological target: Voltage-gated inwardly rectifying potassium channel KCNH2 (Homo sapiens, UniProt Q12809); experiment: Displacement of [35S]MK499 from human ERG expressed in HEK cells; format: cell-based, HEK293
Sequence of Voltage-gated inwardly rectifying potassium channel KCNH2 (Q12809 whole entry): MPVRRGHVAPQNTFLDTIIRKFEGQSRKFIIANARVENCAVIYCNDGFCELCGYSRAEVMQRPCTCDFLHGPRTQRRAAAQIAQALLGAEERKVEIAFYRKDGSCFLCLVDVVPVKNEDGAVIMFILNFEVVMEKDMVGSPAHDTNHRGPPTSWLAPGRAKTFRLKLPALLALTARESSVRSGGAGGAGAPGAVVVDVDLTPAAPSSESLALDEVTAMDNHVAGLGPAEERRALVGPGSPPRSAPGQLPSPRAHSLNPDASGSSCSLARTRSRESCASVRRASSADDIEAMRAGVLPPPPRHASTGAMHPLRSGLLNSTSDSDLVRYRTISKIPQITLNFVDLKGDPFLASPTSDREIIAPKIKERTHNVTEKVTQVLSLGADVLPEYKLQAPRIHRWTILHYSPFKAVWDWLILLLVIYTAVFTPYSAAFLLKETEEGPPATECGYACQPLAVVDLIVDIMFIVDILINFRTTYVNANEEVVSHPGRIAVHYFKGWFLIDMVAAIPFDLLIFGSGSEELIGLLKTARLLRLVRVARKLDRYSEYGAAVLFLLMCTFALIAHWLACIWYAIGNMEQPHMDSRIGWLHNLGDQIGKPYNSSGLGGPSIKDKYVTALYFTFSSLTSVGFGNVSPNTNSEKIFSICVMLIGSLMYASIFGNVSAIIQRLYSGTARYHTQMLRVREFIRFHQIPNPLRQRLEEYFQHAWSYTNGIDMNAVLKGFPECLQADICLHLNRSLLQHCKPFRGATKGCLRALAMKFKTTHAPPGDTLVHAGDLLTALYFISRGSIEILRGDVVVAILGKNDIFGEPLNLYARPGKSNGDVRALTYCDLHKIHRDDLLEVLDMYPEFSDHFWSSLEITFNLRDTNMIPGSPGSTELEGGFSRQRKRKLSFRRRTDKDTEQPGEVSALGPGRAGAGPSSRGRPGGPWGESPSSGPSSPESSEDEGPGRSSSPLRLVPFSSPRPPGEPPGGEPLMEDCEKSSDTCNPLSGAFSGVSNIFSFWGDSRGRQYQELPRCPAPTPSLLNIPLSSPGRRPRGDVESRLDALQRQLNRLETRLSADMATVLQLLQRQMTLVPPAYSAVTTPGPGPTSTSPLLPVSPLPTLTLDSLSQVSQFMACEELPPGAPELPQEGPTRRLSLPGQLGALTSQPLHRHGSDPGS

Row | SMILES | Activity (Mus musculus) [mg/dL] | logD [1] | IC50 [2] [nM] | IC50 [3] [nM]
1 | CC(C)Oc1ccc(F)cc1-c1ccc(N2CCC(CNC(=O)c3ccc(-c4nc5cc(C#N)cc(C(C)C)c5o4)cc3)CC2)nc1 | 24 | 7.2 | – | –
2 | CC(C)c1cc(C#N)cc2nc(-c3ccc(C(=O)NC[C@H]4CC[C@@H](c5ccc(C(C)(C)C)cc5)CC4)cc3)oc12 | 17 | – | 37 | > 30000
3 | CC(C)c1cc(C#N)cc2nc(-c3ccc(C(=O)NC[C@H]4CC[C@H](c5ccc(C(C)(C)C)cc5)CC4)cc3)oc12 | 18 | – | 38 | > 30000
4 | CC(C)c1cc(C#N)cc2nc(-c3ccc(C(=O)NC[C@H]4CC[C@@H](c5ccc(C(F)(F)F)cc5)CC4)cc3)oc12 | – | – | 134 | > 30000
5 | CC(C)c1cc(C#N)cc2nc(-c3ccc(C(=O)NC[C@H]4CC[C@H](c5ccc(C(F)(F)F)cc5)CC4)cc3)oc12 | – | – | 40 | > 30000
6 | CC(C)c1cc(C#N)cc2nc(-c3ccc(C(=O)NC[C@H]4CC[C@@H](c5cccc(C(F)(F)F)c5)CC4)cc3)oc12 | – | – | 78 | –
7 | CC(C)c1cc(C#N)cc2nc(-c3ccc(C(=O)NC[C@H]4CC[C@H](c5cccc(C(F)(F)F)c5)CC4)cc3)oc12 | – | – | 100 | –
8 | Cc1cccc([C@H]2CC[C@@H](CNC(=O)c3ccc(-c4nc5cc(C#N)cc(C(C)C)c5o4)cc3)CC2)c1 | – | – | 145 | –
9 | Cc1cccc([C@H]2CC[C@H](CNC(=O)c3ccc(-c4nc5cc(C#N)cc(C(C)C)c5o4)cc3)CC2)c1 | – | – | 133 | –
10 | CC(C)c1cc(C#N)cc2nc(-c3ccc(C(=O)NC[C@H]4CC[C@@H](c5cc(C(F)(F)F)cc(C(F)(F)F)c5)CC4)cc3)oc12 | – | – | 1040 | > 30000
11 | CC(C)c1cc(C#N)cc2nc(-c3ccc(C(=O)NC[C@H]4CC[C@H](c5cc(C(F)(F)F)cc(C(F)(F)F)c5)CC4)cc3)oc12 | – | – | 84 | > 30000
12 | CC(C)c1cc(C#N)cc2nc(-c3ccc(C(=O)NC[C@H]4CC[C@H](c5ccc(Cl)cc5)CC4)cc3)oc12 | – | – | 77 | > 30000
13 | CC(C)Oc1ccc(F)cc1-c1ccc(N2C[C@@H](CNC(=O)c3ccc(-c4nc5cc(C#N)cc(C(C)C)c5o4)cc3)OC2=O)nc1 | 24 | – | 66 | > 30000
14 | CC(C)Oc1ccc(F)cc1-c1ccc(N2C[C@H](CNC(=O)c3ccc(-c4nc5cc(C#N)cc(C(C)C)c5o4)cc3)OC2=O)nc1 | – | – | 154 | > 30000
15 | CC(C)c1cc(C#N)cc2nc(-c3ccc(C(=O)NC[C@@H]4CN(c5ccc(-c6ccccc6OC(F)(F)F)cn5)C(=O)O4)cc3)oc12 | 19 | – | 46 | > 30000
16 | CC(C)c1cc(C#N)cc2nc(-c3ccc(C(=O)NC[C@H]4CN(c5ccc(-c6ccccc6OC(F)(F)F)cn5)C(=O)O4)cc3)oc12 | – | – | 140 | 3580
17 | CC(C)c1cc(C#N)cc2nc(-c3ccc(C(=O)NC[C@]4(C)CN(c5ccc(-c6ccccc6OC(F)(F)F)cn5)C(=O)O4)cc3)oc12 | 33 | – | 22 | > 30000
18 | CC(C)c1cc(C#N)cc2nc(-c3ccc(C(=O)NC[C@@]4(C)CN(c5ccc(-c6ccccc6OC(F)(F)F)cn5)C(=O)O4)cc3)oc12 | 27 | – | 18 | > 30000
19 | CC(C)c1cc(C#N)cc2nc(-c3ccc(C(=O)NCC4CN(c5ccc(Cl)cn5)C(=O)O4)cc3)oc12 (racemic) | – | 5.8 | 19200 | –
20 | C=C(C)c1ccc(N2CC(CNC(=O)c3ccc(-c4nc5cc(C#N)cc(C(C)C)c5o4)cc3)OC2=O)nc1 (racemic) | – | 5.4 | 2340 | > 30000
21 | CC(C)c1cc(C#N)cc2nc(-c3ccc(C(=O)NCC4CN(c5ccc(-c6ccccc6C#N)cn5)C(=O)O4)cc3)oc12 (racemic) | – | 5.1 | 829 | 1190
22 | CC(C)c1cc(C#N)cc2nc(-c3ccc(C(=O)NCC4CN(c5ccc(-c6ccccc6C(N)=O)cn5)C(=O)O4)cc3)oc12 (racemic) | – | 4.8 | – | > 30000
23 | Cc1ccc(-c2ccc(N3CC(CNC(=O)c4ccc(-c5nc6cc(C#N)cc(C(C)C)c6o5)cc4)OC3=O)nc2)s1 (racemic) | – | 6.2 | 955 | 12700
24 | Cc1ccc(OC(C)C)c(-c2ccc(N3CC(CNC(=O)c4ccc(-c5nc6cc(C#N)cc(C(C)C)c6o5)cc4)OC3=O)nc2)c1 (racemic) | – | 6.9 | 171 | –
25 | CC(C)Oc1ccc(F)cc1-c1ccc(N2CC(CNC(=O)c3ccc(-c4nc5cc(C#N)cc(C(C)C)c5o4)cc3)OC2=O)nc1 (racemic) | – | 6.6 | 124 | > 30000
26 | CC(C)c1cc(C#N)cc2nc(-c3ccc(C(=O)NCC4CN(c5ccc(-c6ccccc6OC(F)(F)F)cn5)C(=O)O4)cc3)oc12 (racemic) | – | 6.4 | 67 | > 30000
